Experimental data taken from patent US20110201608A1 (BOEHRINGER INGELHEIM INTERNATIONAL GMBH, priority 2008, published 2011).

molecular target: T1, Recombinant human Syk (GST-Syk kinase fusion protein) (Homo sapiens, UniProt P43405); assay: Syk Kinase Test (Kinase Glo Luminescence Kinase test); format: biochemical; details: 1 μM test substance; negative control (no kinase) = 100% inhibition, positive control (no test substance) = 0% inhibition
T1 construct: made in house
Method: The catalytic activity of the GST-Syk kinase fusion protein was determined using the Kinase Glo® Luminescence Kinase test of Messrs Promega. In this homogeneous test the amount of ATP remaining after the kinase reaction has been carried out is quantified by a luciferin-luciferase reaction using luminescence. The luminescence signal obtained correlates with the amount of ATP still present and thus correlates inversely with the activity of the protein kinase.
The test substances were dissolved in 100% DMSO at a concentration of 10 mM and diluted in DMSO to a concentration of 1 mM. […] GST-Syk was diluted to 6.0 nM in the test buffer and 10 μl of this dilution were used in the kinase test (final concentration of Syk=4 nM in a total volume of 15 μl).
Positive controls are the reaction mixtures that contain no test substance; negative controls are reaction mixtures that contain no kinase.
After 60 minutes, 10 μl Kinase-Glo® solution (Promega, Cat. # V6712) (heated to ambient temperature) are added to each well and incubation is continued for a further 15 minutes at ambient temperature.
The output file of the “MicroBeta TRILUX” is a text file that contains the well number and measurements obtained. […] Then from this the % inherent value for the measurement of each substance concentration was calculated using an “MS-Excel-VB macro”. […] The IC50 values were calculated from the % inhibition values using “GraphPadPrism” software (Version 5) (GraphPad Software Inc.).

Compound | % INHB SYK at 1 μM
OCCCCOc1nc(-c2ccc(N3CCOCC3)cc2)cc2ncccc12 [Example 4, 4-[7-(4-morpholinophenyl)-[1,6]naphthyridin-5-yloxy]-butan-1-ol] | 94.4%
COc1cc(-c2cc3ncccc3c(NC[C@@H]3CCNC3)n2)ccc1N1CCOCC1 [Example 10] | 98.6%
c1ccc(-c2nc(-c3ccc(N4CCOCC4)cc3)cc3ncccc23)cc1 [Example 132, (4-(5-phenyl-1,6-naphthyridin-7-yl)phenyl)morpholine] | 55.2%
c1cnc2cc(-c3ccc(N4CCOCC4)cc3)nc(Nc3ccc4cn[nH]c4c3)c2c1 [Example 1, 5-[(1H-indazol-6-yl)amino]-7-(4-morpholinophenyl)-[1,6]naphthyridine] | 82.0%
c1cnc2cc(-c3ccc(N4CCOCC4)cc3)nc(NCC3CNCCO3)c2c1 (stereo not shown) [Example 63] | 85.4%
OCC#Cc1nc(-c2ccc(N3CCOCC3)cc2)cc2ncccc12 [Example 82, 3-[7-(4-morpholin-4-yl-phenyl)-[1,6]naphthyridin-5-yl]-prop-2-yn-1-ol] | 87.1%
O[C@H]1CC[C@@H](Nc2nc(-c3ccc(N4CCOCC4)cc3)cc3ncccc23)CC1 [Example 62, 4-[7-(4-morpholin-4-yl-phenyl)-[1,6]naphthyridin-5-ylamino]-cyclohexanol] | 76.8%
Cc1cc(-c2cc3ncccc3c(OC[C@H]3CCCNC3)n2)ccc1N1CCOCC1 [Example 66, (S)-4-(2-methyl-4-(5-(piperidine-3-ylmethoxy)-[1,6]naphthyridin-7-yl)phenyl)morpholine] | 102.8%
CC(=O)N[C@H]1CC[C@@H](Nc2nc(-c3ccc(N4CCOCC4)cc3)cc3ncccc23)CC1 [Example 113, N-{4-[7-(4-morpholin-4-yl-phenyl)-[1,6]naphthyridin-5-ylamino]-cyclohexyl}-acetamide] | 94.7%
NC(=O)N1CCN(c2nc(-c3ccc(N4CCOCC4)cc3)cc3ncccc23)CC1 [Example 98, 4-[7-(4-morpholin-4-yl-phenyl)-[1,6]naphthyridin-5-yl]-piperazine-1-carboxylic acid amide] | 86.8%
NC(=O)C1CCN(c2nc(-c3ccc(N4CCOCC4)cc3)cc3ncccc23)C1 (stereo not shown) [Example 107, 1-[7-(4-morpholin-4-yl-phenyl)-[1,6]naphthyridin-5-yl]-pyrrolidine-3-carboxylic acid amide] | 95.3%
CCNC(=O)N1CCCC1CNc1nc(-c2ccc(N3CCN(C)CC3)cc2)cc2ncccc12 (stereo not shown) [Example 93, 2-({7-[4-(4-methyl-piperazin-1-yl)-phenyl]-[1,6]naphthyridin-5-ylamino}-methyl)-pyrrolidin-1-carboxylic acid ethylamide] | 91.5%
CCNC(=O)NC1CN(c2nc(-c3ccc(N4CCN(C)CC4)cc3)cc3ncccc23)C1 [Example 92, 1-ethyl-3-(1-{7-[4-(4-methyl-piperazin-1-yl)-phenyl]-[1,6]naphthyridin-5-yl}-azetidin-3-yl)-urea] | 77.3%

Other lines, results leading:

% INHB SYK at 1 μM | Compound
86.7% | CN[C@H]1CC[C@@H](Nc2nc(-c3ccc(N4CCOCC4)cc3)cc3ncccc23)CC1 [Example 9, N-methyl-N′-[7-(4-morpholin-4-yl-phenyl)-[1,6]naphthyridin-5-yl]-cyclohexane-1,4-diamine]
72.6% | NC(=O)c1cccnc1Nc1nc(-c2ccc(N3CCOCC3)cc2)cc2ncccc12 [Example 2, 2-[7-(4-morpholin-4-yl-phenyl)-[1,6]naphthyridin-5-ylamino]-nicotinamide]
101.8% | CNc1nc(-c2ccc(N3CCOCC3)cc2)cc2ncccc12 [Example 3]
82.9% | CCOc1nc(-c2ccc(N3CCOCC3)cc2)cc2ncccc12 [Example 79, 5-Ethoxy-7-(4-morpholin-4-yl-phenyl)-[1,6]naphthyridine]
70.3% | C#Cc1nc(-c2ccc(N3CCOCC3)cc2)cc2ncccc12 [Example 142, (4-(5-ethynyl-[1,6]naphthyridin-7-yl)phenyl)morpholine]
43.3% | CCc1nc(-c2ccc(N3CCOCC3)cc2)cc2ncccc12 [Example 140, (4-(5-ethyl-[1,6]naphthyridin-7-yl)phenyl)morpholine]
